{"source": "patent CN116559458A", "about": "“基于protac蛋白靶向降解技术的活性天然产物靶点鉴定方法及protac化合物” (Shenyang Pharmaceutical University, priority 2022, dated 2023)", "key": {"[1]": {"tested_on": "LPS-stimulated mouse macrophage RAW264.7 cells (小鼠巨噬细胞RAW264.7细胞)", "settings": "LPS-stimulated RAW264.7; earlier study of the applicant's group; read-out: IC50 (inhibition of NO production); cited from earlier work"}, "MAFF protein (MAFF蛋白) [2]": {"target": "MAFF protein (MAFF蛋白) (Homo sapiens, UniProt Q9ULX9)", "sequence (Q9ULX9 whole entry, species assumed)": "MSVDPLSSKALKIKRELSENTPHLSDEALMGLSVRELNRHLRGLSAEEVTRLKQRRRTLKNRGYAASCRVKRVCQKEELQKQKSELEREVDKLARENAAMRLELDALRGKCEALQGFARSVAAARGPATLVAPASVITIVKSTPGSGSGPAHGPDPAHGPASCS", "assay": "Microscale thermophoresis (MST)", "format": "binding"}, "MAFF": {"target": "T1, MAFF (Mus musculus, UniProt O54791)", "T1 construct": "endogenous in cells; host or cells: RAW264.7", "T1 sequence (O54791 whole entry)": "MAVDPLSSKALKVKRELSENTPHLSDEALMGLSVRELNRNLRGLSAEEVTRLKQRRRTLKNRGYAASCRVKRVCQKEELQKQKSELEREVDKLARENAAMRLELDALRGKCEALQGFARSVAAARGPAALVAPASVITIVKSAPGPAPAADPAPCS", "assay": "DARTS in RAW264.7 lysate", "format": "binding", "settings": "10, 20 and 40 μM; Pronase 1:1000, 37 ℃ 15 min"}, "MAFF protein (MAFF蛋白) [3]": {"target": "T2, MAFF protein (MAFF蛋白) (Mus musculus, UniProt O54791)", "T2 construct": "endogenous in cells; host or cells: RAW264.7", "T2 sequence (O54791 whole entry)": "as above", "assay": "CETSA in RAW264.7 cells", "format": "cell-based", "settings": "40 μM, 4 h; 64-72 ℃"}, "[4]": {"tested_on": "LPS-stimulated mouse macrophage RAW264.7 cells, NO production (小鼠巨噬细胞RAW264.7细胞, 一氧化氮(NO)生成)", "assay": "Griess assay of NO production in LPS-stimulated RAW264.7 cells", "format": "cell-based"}}, "data": [{"smiles": "C=C1CC[C@H]2[C@@H](/C=C(\\C)C(=O)[C@@]3(OC(C)=O)C[C@H](C)[C@H](OC(=O)/C=C/c4ccccc4)[C@@H]3[C@H]1O)C2(C)C", "note": "[2S,3S,4S,5R,9S,11R,15R)-15-acetoxy-3-cinnamoyloxy-5-hydroxy-14-oxolathyra-6(17),12E-diene]", "values": [{"measurement": "IC50", "setting": "[1]", "value": "3 ± 1.1", "unit": "µM"}]}, {"smiles": "C=C1CC[C@H]2[C@@H](/C=C(\\C)C(=O)[C@@]3(O)C[C@H](C)[C@H](O)[C@@H]3[C@H]1O)C2(C)C", "note": "[Lathyrol]", "values": [{"measurement": "Kd", "setting": "MAFF protein (MAFF蛋白) [2]", "value": "20.9 ± 2.34", "unit": "µM"}, {"measurement": "degradation of MAFF by Pronase", "setting": "MAFF", "value": "降解程度显著降低"}, {"measurement": "thermal stability of MAFF protein", "setting": "MAFF protein (MAFF蛋白) [3]", "value": "提高了MAFF蛋白的热稳定性"}, {"measurement": "IC50", "setting": "[4]; Mus musculus, RAW264.7, read-out: IC50 (inhibition of NO production)", "value": "11.1 ± 1.14", "unit": "µM"}, {"measurement": "inhibition of LPS-stimulated NO production (in words)", "setting": "[4]; RAW264.7, compound 3 h, then LPS 1 μg/mL 24 h", "value": "良好的抑制作用"}]}]}
